{"source": "ChEMBL document CHEMBL1139911", "about": "“4-substituted indazoles as new inhibitors of neuronal nitric oxide synthase” (Bioorg Med Chem Lett, 2007)", "key": {"Nitric oxide synthase 1": {"molecular_target": "Nitric oxide synthase 1 (Rattus norvegicus, UniProt P29476)", "sequence (P29476 whole entry)": "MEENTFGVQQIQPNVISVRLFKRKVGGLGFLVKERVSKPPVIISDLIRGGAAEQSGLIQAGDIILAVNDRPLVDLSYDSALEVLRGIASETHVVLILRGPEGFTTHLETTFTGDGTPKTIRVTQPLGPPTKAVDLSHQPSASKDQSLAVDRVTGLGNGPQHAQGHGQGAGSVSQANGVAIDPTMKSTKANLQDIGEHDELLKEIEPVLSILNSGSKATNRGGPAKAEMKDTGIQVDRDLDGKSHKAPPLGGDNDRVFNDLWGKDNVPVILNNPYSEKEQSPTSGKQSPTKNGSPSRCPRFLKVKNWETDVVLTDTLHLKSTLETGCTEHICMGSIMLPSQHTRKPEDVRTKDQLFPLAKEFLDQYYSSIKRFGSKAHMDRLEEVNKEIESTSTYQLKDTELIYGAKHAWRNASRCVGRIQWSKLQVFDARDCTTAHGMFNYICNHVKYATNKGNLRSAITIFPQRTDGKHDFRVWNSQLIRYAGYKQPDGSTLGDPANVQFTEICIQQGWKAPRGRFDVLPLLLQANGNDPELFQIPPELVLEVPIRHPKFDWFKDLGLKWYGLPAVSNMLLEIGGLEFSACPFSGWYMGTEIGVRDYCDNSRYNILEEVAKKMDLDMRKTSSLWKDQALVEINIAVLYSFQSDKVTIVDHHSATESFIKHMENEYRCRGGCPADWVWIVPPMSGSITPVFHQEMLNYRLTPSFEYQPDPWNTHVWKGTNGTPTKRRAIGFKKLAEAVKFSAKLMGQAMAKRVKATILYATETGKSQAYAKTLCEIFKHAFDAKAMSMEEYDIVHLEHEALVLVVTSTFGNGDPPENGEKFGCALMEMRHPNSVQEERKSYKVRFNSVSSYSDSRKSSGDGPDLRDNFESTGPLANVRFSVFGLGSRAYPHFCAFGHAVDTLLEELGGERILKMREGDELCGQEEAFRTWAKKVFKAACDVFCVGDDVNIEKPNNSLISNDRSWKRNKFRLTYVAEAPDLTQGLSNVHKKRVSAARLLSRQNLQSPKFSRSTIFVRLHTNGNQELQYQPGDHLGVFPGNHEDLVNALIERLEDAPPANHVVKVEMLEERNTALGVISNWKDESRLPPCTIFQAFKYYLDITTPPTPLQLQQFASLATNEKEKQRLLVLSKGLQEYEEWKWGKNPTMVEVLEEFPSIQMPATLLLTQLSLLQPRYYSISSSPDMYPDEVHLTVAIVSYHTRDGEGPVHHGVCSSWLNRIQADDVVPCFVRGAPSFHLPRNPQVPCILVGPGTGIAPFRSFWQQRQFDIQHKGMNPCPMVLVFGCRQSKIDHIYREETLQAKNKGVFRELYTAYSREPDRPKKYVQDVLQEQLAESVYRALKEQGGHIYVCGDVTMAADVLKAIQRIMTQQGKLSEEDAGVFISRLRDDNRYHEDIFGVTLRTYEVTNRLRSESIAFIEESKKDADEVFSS", "assay": "Inhibition of rat neuronal NOS"}, "Mus musculus [1]": {"tested_on": "Mus musculus", "assay": "Antinociceptive effect in acetic acid-induced mouse assessed as number of writhes for 10 mins at 50 mg/kg, ip", "type": "functional", "conditions": "route intraperitoneal"}, "Mus musculus [2]": {"tested_on": "Mus musculus", "assay": "Antinociceptive effect in acetic acid-induced mouse assessed as number of writhes for 10 mins at 12.5 mg/kg, ip", "type": "functional", "conditions": "route intraperitoneal"}, "Mus musculus [3]": {"tested_on": "Mus musculus", "assay": "Reversal of antinociceptive effect in L-arginine pretreated mouse assessed as number or writhes for 10 mins at 50 mg/kg, ip", "type": "functional", "conditions": "route intraperitoneal"}, "Mus musculus [4]": {"tested_on": "Mus musculus", "assay": "Antinociceptive effect in mouse assessed as number of writhes for 10 mins at 50 mg/kg, ip", "type": "functional", "conditions": "route intraperitoneal"}, "Mus musculus [5]": {"tested_on": "Mus musculus", "assay": "Antinociceptive effect in acetic acid-induced mouse assessed as number of writhes for 10 mins at 25 mg/kg, ip", "type": "functional", "conditions": "route intraperitoneal"}}}
{"compound": "Clc1cccc2[nH]ncc12", "values": [{"measurement": "IC50", "setting": "Nitric oxide synthase 1", "result": 44.3, "unit": "µM"}]}
{"compound": "Fc1cccc2[nH]ncc12", "values": [{"measurement": "IC50", "setting": "Nitric oxide synthase 1", "result": "> 100", "unit": "µM"}]}
{"compound": "O=[N+]([O-])c1cccc2cn[nH]c12", "note": "[7-NITROINDAZOLE]", "values": [{"measurement": "Activity", "setting": "Mus musculus [1]", "result": 6.8}]}
{"compound": "Fc1ccc2[nH]ncc2c1", "values": [{"measurement": "IC50", "setting": "Nitric oxide synthase 1", "result": "> 100", "unit": "µM"}]}
{"compound": "CC(=O)Oc1ccccc1C(=O)O", "note": "[ASPIRIN]", "values": [{"measurement": "Activity", "setting": "Mus musculus [2]", "result": 7.6}]}
{"compound": "Fc1ccc2cn[nH]c2c1", "values": [{"measurement": "IC50", "setting": "Nitric oxide synthase 1", "result": "> 100", "unit": "µM"}]}
{"compound": "Brc1ccc2[nH]ncc2c1", "values": [{"measurement": "IC50", "setting": "Nitric oxide synthase 1", "result": 72, "unit": "µM"}]}
{"compound": "Ic1cccc2[nH]ncc12", "values": [{"measurement": "IC50", "setting": "Nitric oxide synthase 1", "result": 17, "unit": "µM"}]}
{"compound": "Clc1ccc2cn[nH]c2c1", "values": [{"measurement": "IC50", "setting": "Nitric oxide synthase 1", "result": 22, "unit": "µM"}]}
{"compound": "Ic1ccc2[nH]ncc2c1", "values": [{"measurement": "IC50", "setting": "Nitric oxide synthase 1", "result": 37, "unit": "µM"}]}
{"compound": "Clc1cccc2cn[nH]c12", "values": [{"measurement": "Activity", "setting": "Mus musculus [1]", "result": 7.9}, {"measurement": "Activity", "setting": "Mus musculus [3]", "result": 23}, {"measurement": "IC50", "setting": "Nitric oxide synthase 1", "result": 4.2, "unit": "µM"}, {"measurement": "Activity", "setting": "Mus musculus [4]", "result": 12.1}, {"measurement": "Activity", "setting": "Mus musculus [5]", "result": 12.9}, {"measurement": "Activity", "setting": "Mus musculus [2]", "result": 15}]}
{"compound": "Brc1ccc2cn[nH]c2c1", "values": [{"measurement": "IC50", "setting": "Nitric oxide synthase 1", "result": 4.3, "unit": "µM"}]}
{"compound": "Clc1ccc2[nH]ncc2c1", "values": [{"measurement": "IC50", "setting": "Nitric oxide synthase 1", "result": 59.3, "unit": "µM"}]}
{"compound": "Brc1cccc2[nH]ncc12", "values": [{"measurement": "Activity", "setting": "Mus musculus [1]", "result": 9.3}, {"measurement": "Activity", "setting": "Mus musculus [3]", "result": 24.3}, {"measurement": "IC50", "setting": "Nitric oxide synthase 1", "result": 2.4, "unit": "µM"}, {"measurement": "Activity", "setting": "Mus musculus [4]", "result": 10.8}, {"measurement": "Activity", "setting": "Mus musculus [5]", "result": 8.8}, {"measurement": "Activity", "setting": "Mus musculus [2]", "result": 11}]}
{"compound": "Brc1cccc2cn[nH]c12", "values": [{"measurement": "IC50", "setting": "Nitric oxide synthase 1", "result": 14.3, "unit": "µM"}]}
{"compound": "O=[N+]([O-])c1cccc2[nH]ncc12", "values": [{"measurement": "Activity", "setting": "Mus musculus [1]", "result": 9.3}, {"measurement": "Activity", "setting": "Mus musculus [3]", "result": 23.8}, {"measurement": "Activity", "setting": "Mus musculus [4]", "result": 11.8}, {"measurement": "Activity", "setting": "Mus musculus [5]", "result": 9.9}, {"measurement": "Activity", "setting": "Mus musculus [2]", "result": 18}]}
{"compound": "N=C(N)NCCC[C@H](N)C(=O)O", "note": "[ARGININE]", "values": [{"measurement": "Activity", "setting": "Mus musculus [4]", "result": 22.9}]}
